Like-named read-outs stand apart in the source and are kept apart here.
What was measured:
Test in all cases: Ras GTP binding domain inhibition assay (Cy3-GTP/Cy5-GTP competition)
KRas G12D mutant = target: T1, KRas G12D mutant (Homo sapiens, UniProt P01116, G12D); settings: at 20 μM
T1 construct: fused on or other part: His tag, used for capture on nickel-coated plates
How it was run: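 His-tagged Ras immobilized on nickel-coated wells in Tris buffer (pH 7.4 or 7.0) with 1 mM MgCl2, 1 mM DTT, 1% DMSO. Compound (20 μM, or serial dilution for IC50) incubated 3 hours at room temperature, ± Sos (residues 556-1049) in final hour. Bound 100 nM Cy3-/Cy5-GTP read after 45 minutes and washing.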

Rho-A = Rho-A (Homo sapiens, UniProt P61586)
How it was run: (§1)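 Compounds tested at 20 μM or in serial dilution for IC50 against nickel-captured His-tagged GTPase, 3 hours at room temperature, with or without His-Sos GEF added for last hour. Fluorescent GTP then added at 100 nM for 45 minutes; wells washed, bound label measured by fluorescence.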

Rac-1 = Rac-1 (Homo sapiens, UniProt P63000)
How it was run: as §1

[1] = with SOS, read-out: KRas G12D mutant + SOS: % inh.
[2] = without SOS, read-out: KRas G12D mutant: % inh.
[3] = with SOS, read-out: Rho-A + SOS: % inh.
[4] = without SOS, read-out: Rho-A: % inh.
[5] = with SOS, read-out: Rac-1 + SOS: % inh.
[6] = without SOS, read-out: Rac-1: % inh.

Row | Compound | inhibition at 20 µM (KRas G12D mutant; [1]) | inhibition at 20 µM (KRas G12D mutant; [2]) | inhibition at 20 µM (Rho-A; [3]) | inhibition at 20 µM (Rho-A; [4]) | inhibition at 20 µM (Rac-1; [5]) | inhibition at 20 µM (Rac-1; [6]) | KRas G12D mutant + SOS: % inh. (KRas G12D mutant; with SOS) | KRas G12D mutant: % inh. (KRas G12D mutant; without SOS) | Rho-A + SOS: % inh. (Rho-A; at 20 μM, with SOS) | Rho-A: % inh. (Rho-A; at 20 μM, without SOS) | Rac-1 + SOS: % inh. (Rac-1; at 20 μM, with SOS) | Rac-1: % inh. (Rac-1; at 20 μM, without SOS)
1 | Cn1ccnc1-c1nc(O)c2scc(-c3ccccn3)c2n1 [drawing 988] | 51 to 75% | 76 to 100% | 76 to 100% | 51 to 75% | 76 to 100% | 51 to 75% |  |  |  |  |  | 
2 | CC(C)COc1ccc(-c2csc3c(O)nc(-c4nccn4Cc4ccccn4)nc23)cn1 [drawing 1034] | 51 to 75% | 76 to 100% | 76 to 100% | 76 to 100% | 76 to 100% | 76 to 100% |  |  |  |  |  | 
3 | Oc1nc(-c2cn(-c3ccccc3)cn2)nc2c(-c3ccccn3)csc12 [drawing 982] | 1 to 25% | 1 to 25% | 26 to 50% | 0% | 1 to 25% | 26 to 50% |  |  |  |  |  | 
4 | Cn1ccnc1-c1nc(O)c(O)c(C(=O)NC2CCCC2)n1 [drawing 962] | 26 to 50% | 51 to 75% | 76 to 100% | 26 to 50% | 51 to 75% | 51 to 75% |  |  |  |  |  | 
5 | Cc1cc(Cn2ccnc2-c2nc(O)c3scc(-c4ccccn4)c3n2)on1 [drawing 981] | 26 to 50% | 51 to 75% | 26 to 50% | 1 to 25% | 51 to 75% | 51 to 75% |  |  |  |  |  | 
6 | Oc1nc(-c2nccn2Cc2ccccn2)nc2c(-c3ccccn3)csc12 [drawing 986] | 51 to 75% | 76 to 100% | 51 to 75% | 51 to 75% | 51 to 75% | 76 to 100% |  |  |  |  |  | 
7 | COCCNc1nc(-c2nccn2C)nc2sc(-c3cccc(OC)c3Cl)c(-c3ccccc3)c12 [drawing 1007] | 76 to 100% | 1 to 25% | 51 to 75% | 51 to 75% | 26 to 50% | 51 to 75% |  |  |  |  |  | 
8 | O=C(NC1CCC1)c1nc(-c2ccccn2)nc(O)c1O [drawing 944] | 26 to 50% | 51 to 75% | 76 to 100% | 51 to 75% | 76 to 100% | 76 to 100% |  |  |  |  |  | 
9 | COCCNc1nc(-c2cn(C)cn2)nc2sc(-c3ccccc3Cl)c(-c3ccc(OC)cc3)c12 [drawing 1008] | 76 to 100% | 26 to 50% | 0% | 0% | 26 to 50% | 26 to 50% |  |  |  |  |  | 
10 | COc1cccc(Cn2ccnc2-c2nc(O)c3scc(-c4ccc(OCC(C)C)nc4)c3n2)c1 [drawing 1035] | 51 to 75% | 51 to 75% | 51 to 75% | 76 to 100% | 76 to 100% | 76 to 100% |  |  |  |  |  | 
11 | COCCNc1nc(-c2nccn2C)nc2sc(-c3cccc(OC)c3)c(-c3ccc(OC)cc3)c12 [drawing 1010] | 76 to 100% | 51 to 75% | 0% | 0% | 26 to 50% | 1 to 25% |  |  |  |  |  | 
12 | COC1CCN(C(=O)c2sc3nc(-c4nccn4C)nc(N[C@H]4C[C@@H](OC)C4)c3c2-c2ccccc2)C1 (stereo partly drawn) [drawing 1058] | 51 to 75% | 51 to 75% | 76 to 100% | 26 to 50% | 51 to 75% | 76 to 100% |  |  |  |  |  | 
13 | COc1c(O)nc(-c2ccccn2)nc1Oc1cccnc1 [drawing 937] | 51 to 75% | 51 to 75% | 76 to 100% | 76 to 100% | 76 to 100% | 76 to 100% |  |  |  |  |  | 
14 | COc1ccc(Oc2nc(-c3ccccn3)nc(O)c2OC)cc1 [drawing 950] | 26 to 50% | 76 to 100% | 51 to 75% | 51 to 75% | 51 to 75% | 76 to 100% |  |  |  |  |  | 
15 | CCOc1cccc(Nc2nc(-c3ccccn3)nc(O)c2OC)c1 [drawing 1017] | 26 to 50% | 51 to 75% | 51 to 75% | 51 to 75% | 76 to 100% | 76 to 100% |  |  |  |  |  | 
16 | Cc1c(-c2ccn(C)n2)sc2nc(-c3nccn3C)nc(NCCOC(=O)N(C)C)c12 [drawing 1053] | 76 to 100% | 76 to 100% | 51 to 75% | 76 to 100% | 51 to 75% | 76 to 100% |  |  |  |  |  | 
17 | Oc1nc(-c2ncc3ccccn23)nc2c(-c3ccccn3)csc12 [drawing 969] | 51 to 75% | 76 to 100% | 76 to 100% | 76 to 100% | 76 to 100% | 76 to 100% |  |  |  |  |  | 
18 | COc1c(F)cccc1-c1sc2nc(-c3nccn3C)nc(NC3CCC(OC)C3)c2c1-c1ccccc1 (stereo not drawn) [drawing 1021] | 1 to 25% | 1 to 25% | 26 to 50% | 26 to 50% | 51 to 75% | 26 to 50% |  |  |  |  |  | 
19 | CO[C@H]1C[C@@H](Nc2nc(-c3ncc[nH]3)nc3sc(-c4ccn(C)n4)c(-c4ccccc4)c23)C1 [drawing 1045] | 26 to 50% | 26 to 50% | 26 to 50% | 26 to 50% | 26 to 50% | 26 to 50% |  |  |  |  |  | 
20 | CO[C@H]1C[C@@H](Nc2nc(-c3nccn3C)nc3sc(C(=O)NC(C)C)c(-c4ccccc4)c23)C1 [drawing 1055] | 51 to 75% | 51 to 75% | 51 to 75% | 51 to 75% | 76 to 100% | 76 to 100% |  |  |  |  |  | 
21 | COCCNC(=O)c1sc2nc(-c3nccn3C)nc(N[C@H]3C[C@@H](OC)C3)c2c1-c1ccccc1 [drawing 1056] | 51 to 75% | 51 to 75% | 51 to 75% | 51 to 75% | 76 to 100% | 51 to 75% |  |  |  |  |  | 

The remaining lines, values ahead:

Row | inhibition at 20 µM (KRas G12D mutant; [1]) | inhibition at 20 µM (KRas G12D mutant; [2]) | inhibition at 20 µM (Rho-A; [3]) | inhibition at 20 µM (Rho-A; [4]) | inhibition at 20 µM (Rac-1; [5]) | inhibition at 20 µM (Rac-1; [6]) | KRas G12D mutant + SOS: % inh. (KRas G12D mutant; with SOS) | KRas G12D mutant: % inh. (KRas G12D mutant; without SOS) | Rho-A + SOS: % inh. (Rho-A; at 20 μM, with SOS) | Rho-A: % inh. (Rho-A; at 20 μM, without SOS) | Rac-1 + SOS: % inh. (Rac-1; at 20 μM, with SOS) | Rac-1: % inh. (Rac-1; at 20 μM, without SOS) | Compound
22 | 51 to 75% | 51 to 75% | 26 to 50% | 26 to 50% | 51 to 75% | 51 to 75% |  |  |  |  |  |  | COCCn1cc(-c2sc3nc(-c4nccn4C)nc(N4CCC(OC)C4)c3c2-c2ccccc2)cn1 (stereo not drawn) [drawing 976]
23 | 51 to 75% | 51 to 75% | 51 to 75% | 51 to 75% | 51 to 75% | 26 to 50% |  |  |  |  |  |  | COc1ncccc1-c1sc2nc(-c3nccn3C)nc(N3CCC(OC)C3)c2c1-c1ccccc1 (stereo not drawn) [drawing 978]
24 |  |  |  |  |  |  | C (51-75% inhibition) | A (1-25% inhibition) | B (26-50% inhibition) | B (26-50% inhibition) | B (26-50% inhibition) | B (26-50% inhibition) | COc1cccc(-c2sc3nc(-c4nccn4C)nc(N4CCC(OC)C4)c3c2-c2ccccc2)c1F (stereo not drawn) [drawing 1025]
25 | 26 to 50% | 26 to 50% | 26 to 50% | 26 to 50% | 26 to 50% | 26 to 50% |  |  |  |  |  |  | Cn1ccc(-c2sc3nc(-c4nccn4C)nc(O)c3c2-c2ccccc2)n1 [drawing 1039]
26 | 1 to 25% | 26 to 50% | 76 to 100% | 0% | 26 to 50% | 26 to 50% |  |  |  |  |  |  | Cn1ccc(-c2sc3nc(-c4nccn4C)nc(N4CCC5(CCOC5)C4)c3c2-c2ccccc2)n1 (stereo not drawn) [drawing 992]
27 | 51 to 75% | 26 to 50% | 26 to 50% | 51 to 75% | 51 to 75% | 51 to 75% |  |  |  |  |  |  | CO[C@H]1CC[C@@H](Nc2nc(-c3ncc[nH]3)nc3sc(-c4ccn(C)n4)c(-c4ccccc4)c23)C1 [drawing 1046]
28 | 26 to 50% | 1 to 25% | 0% | 0% | 26 to 50% | 1 to 25% |  |  |  |  |  |  | COCCCNc1nc(-c2nccn2C)nc2sc(-c3ccn(C)n3)c(-c3ccccc3)c12 [drawing 1001]
29 | 26 to 50% | 26 to 50% | 76 to 100% | 0% | 26 to 50% | 26 to 50% |  |  |  |  |  |  | CO[C@@H]1CCC(Nc2nc(-c3nccn3C)nc3sc(-c4ccn(C)n4)c(-c4ccccc4)c23)C1 (stereo partly drawn) [drawing 994]
30 | 26 to 50% | 26 to 50% | 0% | 51 to 75% | 0% | 1 to 25% |  |  |  |  |  |  | COC1CCN(c2nc(-c3nccn3C)nc3sc(-c4ccncc4C)c(-c4ccccc4)c23)C1 (stereo not drawn) [drawing 955]
31 | 76 to 100% | 51 to 75% | 76 to 100% | 76 to 100% | 76 to 100% | 76 to 100% |  |  |  |  |  |  | CO[C@H]1C[C@@H](Nc2nc(-c3nccn3C)nc3sc(-c4cnn(C)c4)c(-c4ccccc4)c23)C1 [drawing 1027]
